“Also recorded” adds a separate entry of the source.
Experiments:
[1] = Study G1T38-01: safety and tolerability in healthy subjects; assay type: in vivo, Humans
Excerpt: Effects on hematologic parameters were not observed due to the limited duration of dosing.

[2] = test system: EGFR^ex20ins PDX NSCLC tumor fragments (LU0387, CrownBio); test: Example 5: Compound IV +/- osimertinib in EGFR ex20ins PDX model; assay type: in vivo, BALB/c nude mice; details: once daily oral gavage
Excerpt: (§1) The x-axis is days from initiation measured in time and the y-axis is mean tumor volume measured in mm^3.
Tumors continued to be measured until they reached tumor burden (>3000 mm3).

[3] = test system: H1975 (EGFR^L858R/T790M NSCLC Model); test: Example 2: Compound IV + erlotinib in H1975 tumor bearing mice; assay type: in vivo; details: Compound IV 50 or 100 mg/kg in combination with erlotinib 70 mg/kg, daily, 18 days
Procedure: The x-axis is days of treatment measured in time and the y-axis is tumor volume measured in mm^3.
Compound IV in combination with the EGFR-TKI erlotinib was tested in an EGFR^L858R/T790M NSCLC model. The combination of Compound IV in dosages of 50 mg/kg and 100 mg/kg+erlotinib was tested and compared to treatment regimens consisting of only Compound IV (in 50 mg/kg dose or a 100 mg/kg) or erlotinib (70 mg/kg). H1975 (EGFR^L858R/T790M NSCLC Model) tumor bearing mice were treated daily. Tumors were measured twice a week until vehicle treated mice tumors reached about 1000 mm^3 (18 days). Data is plotted to compare tumor growth in each cohort during the 18 days of treatment.

[4] = test system: EGFR^ex19del/T790M PDX NSCLC tumor fragments (TM00219, Jackson Labs); test: Example 4: Compound IV +/- osimertinib in EGFR ex19del/T790M PDX model; assay type: in vivo, NSG mice; details: once daily oral gavage 28 days
Excerpt: as §1
The x-axis is days from initiation measured in time and the y-axis is median tumor volume measured in mm^3.
After 28 days tumors continued to be measured until they reached tumor burden (>2000 mm^3).

[5] = G1T38-02: G1T38-related TEAEs by CTCAE grade; assay type: in vivo, Humans; details: for G1T38-related TEAE: Alopecia / G1T38-related TEAE: Anaemia / G1T38-related TEAE: Blood bilirubin increased / G1T38-related TEAE: Blood creatinine increased / G1T38-related TEAE: Blood lactate dehydrogenase increased / G1T38-related TEAE: Blood urea increased / G1T38-related TEAE: Diarrhoea / G1T38-related TEAE: Dry eye / G1T38-related TEAE: Dry mouth / G1T38-related TEAE: Haematuria / G1T38-related TEAE: Lacrimation increased / G1T38-related TEAE: Leukopenia / G1T38-related TEAE: Monocyte count decreased / G1T38-related TEAE: Nausea / G1T38-related TEAE: Neutropenia / G1T38-related TEAE: Neutrophil count deceased / G1T38-related TEAE: Platelet count decreased / G1T38-related TEAE: Stomatitis / G1T38-related TEAE: Thombocytopenia / G1T38-related TEAE: Vomiting / G1T38-related TEAE: White blood cell count decreased / Number (%) of patients with any G1T38-related TEAEs: N = 18

## CC(C)N1CCN(c2ccc(Nc3ncc4cc5n(c4n3)C3(CCCCC3)CNC5=O)nc2)CC1 [Compound IV]
[1]; dosing under fed conditions
  effect of fed conditions on gastrointestinal tolerability: appeared to improve gastrointestinal tolerability
[1]; limited duration of dosing
  effects on hematologic parameters: not observed
[1]; single or twice daily oral doses, 3 to 600 mg/day, healthy male and female subjects
  tolerability: well to moderately tolerated
[1]; subjects with moderate tolerability
  most common moderate intensity TEAEs: gastrointestinal AEs were the most common moderate intensity treatment-emergent AEs
[2]; Compound IV 100 mg/kg + osimertinib 10 mg/kg
  tumor growth vs vehicle, combination: significant tumor growth delay; also recorded: delays tumor growth
[2]; 17 days, Compound IV 100 mg/kg or osimertinib 10 mg/kg alone
  tumor growth vs vehicle, single agent: did not cause an effect
[3]
  erlotinib resistance (tumor volume): reversed erlotinib resistance; also recorded: reverses EGFR-TKI acquired resistance
[4]; Compound IV 100 mg/kg + osimertinib 2.5 mg/kg
  tumor growth vs vehicle, combination: tumor stasis during dosing that was sustained post treatment; also recorded: delays tumor growth
[4]; Compound IV 100 mg/kg or osimertinib 2.5 mg/kg alone
  tumor growth vs vehicle, single agent: modest tumor growth inhibition
[5]; Grade 1-2
  G1T38-related TEAE: Alopecia: 1 (5.6) n (%)
  G1T38-related TEAE: Anaemia: 6 (33.3) n (%)
  G1T38-related TEAE: Blood bilirubin increased: 1 (5.6) n (%)
  G1T38-related TEAE: Blood creatinine increased: 2 (11.1) n (%)
  G1T38-related TEAE: Blood lactate dehydrogenase increased: 1 (5.6) n (%)
  G1T38-related TEAE: Blood urea increased: 1 (5.6) n (%)
  G1T38-related TEAE: Diarrhoea: 5 (27.8) n (%)
  G1T38-related TEAE: Dry eye: 1 (5.6) n (%)
  G1T38-related TEAE: Dry mouth: 1 (5.6) n (%)
  G1T38-related TEAE: Haematuria: 3 (16.7) n (%)
  G1T38-related TEAE: Lacrimation increased: 1 (5.6) n (%)
  G1T38-related TEAE: Leukopenia: 1 (5.6) n (%)
  G1T38-related TEAE: Monocyte count decreased: 1 (5.6) n (%)
  G1T38-related TEAE: Nausea: 5 (27.8) n (%)
  G1T38-related TEAE: Neutropenia: 3 (16.7) n (%)
  G1T38-related TEAE: Neutrophil count deceased: 7 (38.9) n (%)
  G1T38-related TEAE: Platelet count decreased: 2 (11.1) n (%)
  G1T38-related TEAE: Stomatitis: 1 (5.6) n (%)
  G1T38-related TEAE: Thombocytopenia: 1 (5.6) n (%)
  G1T38-related TEAE: Vomiting: 3 (16.7) n (%)
  G1T38-related TEAE: White blood cell count decreased: 7 (38.9) n (%)
  Number (%) of patients with any G1T38-related TEAEs: 11 (61.1) n (%)
[5]; Grade 3
  G1T38-related TEAE: Alopecia: 0 n (%)
  G1T38-related TEAE: Anaemia: 0 n (%)
  G1T38-related TEAE: Blood bilirubin increased: 0 n (%)
  G1T38-related TEAE: Blood creatinine increased: 0 n (%)
  G1T38-related TEAE: Blood lactate dehydrogenase increased: 0 n (%)
  G1T38-related TEAE: Blood urea increased: 0 n (%)
  G1T38-related TEAE: Diarrhoea: 0 n (%)
  G1T38-related TEAE: Dry eye: 0 n (%)
  G1T38-related TEAE: Dry mouth: 0 n (%)
  G1T38-related TEAE: Haematuria: 0 n (%)
  G1T38-related TEAE: Lacrimation increased: 0 n (%)
  G1T38-related TEAE: Leukopenia: 0 n (%)
  G1T38-related TEAE: Monocyte count decreased: 0 n (%)
  G1T38-related TEAE: Nausea: 0 n (%)
  G1T38-related TEAE: Neutropenia: 1 (5.6) n (%)
  G1T38-related TEAE: Neutrophil count deceased: 2 (11.1) n (%)
  G1T38-related TEAE: Platelet count decreased: 0 n (%)
  G1T38-related TEAE: Stomatitis: 0 n (%)
  G1T38-related TEAE: Thombocytopenia: 0 n (%)
  G1T38-related TEAE: Vomiting: 0 n (%)
  G1T38-related TEAE: White blood cell count decreased: 0 n (%)
  Number (%) of patients with any G1T38-related TEAEs: 3 (16.7) n (%)
[5]; Grade 4
  G1T38-related TEAE: Alopecia: 0 n (%)
  G1T38-related TEAE: Anaemia: 0 n (%)
  G1T38-related TEAE: Blood bilirubin increased: 0 n (%)
  G1T38-related TEAE: Blood creatinine increased: 0 n (%)
  G1T38-related TEAE: Blood lactate dehydrogenase increased: 0 n (%)
  G1T38-related TEAE: Blood urea increased: 0 n (%)
  G1T38-related TEAE: Diarrhoea: 0 n (%)
  G1T38-related TEAE: Dry eye: 0 n (%)
  G1T38-related TEAE: Dry mouth: 0 n (%)
  G1T38-related TEAE: Haematuria: 0 n (%)
  G1T38-related TEAE: Lacrimation increased: 0 n (%)
  G1T38-related TEAE: Leukopenia: 0 n (%)
  G1T38-related TEAE: Monocyte count decreased: 0 n (%)
  G1T38-related TEAE: Nausea: 0 n (%)
  G1T38-related TEAE: Neutropenia: 1 (5.0) n (%)
  G1T38-related TEAE: Neutrophil count deceased: 0 n (%)
  G1T38-related TEAE: Platelet count decreased: 0 n (%)
  G1T38-related TEAE: Stomatitis: 0 n (%)
  G1T38-related TEAE: Thombocytopenia: 0 n (%)
  G1T38-related TEAE: Vomiting: 0 n (%)
  G1T38-related TEAE: White blood cell count decreased: 0 n (%)
  Number (%) of patients with any G1T38-related TEAEs: 1 (5.6) n (%)
[5]; Grade 5
  G1T38-related TEAE: Alopecia: 0 n (%)
  G1T38-related TEAE: Anaemia: 0 n (%)
  G1T38-related TEAE: Blood bilirubin increased: 0 n (%)
  G1T38-related TEAE: Blood creatinine increased: 0 n (%)
  G1T38-related TEAE: Blood lactate dehydrogenase increased: 0 n (%)
  G1T38-related TEAE: Blood urea increased: 0 n (%)
  G1T38-related TEAE: Diarrhoea: 0 n (%)
  G1T38-related TEAE: Dry eye: 0 n (%)
  G1T38-related TEAE: Dry mouth: 0 n (%)
  G1T38-related TEAE: Haematuria: 0 n (%)
  G1T38-related TEAE: Lacrimation increased: 0 n (%)
  G1T38-related TEAE: Leukopenia: 0 n (%)
  G1T38-related TEAE: Monocyte count decreased: 0 n (%)
  G1T38-related TEAE: Nausea: 0 n (%)
  G1T38-related TEAE: Neutropenia: 0 n (%)
  G1T38-related TEAE: Neutrophil count deceased: 0 n (%)
  G1T38-related TEAE: Platelet count decreased: 0 n (%)
  G1T38-related TEAE: Stomatitis: 0 n (%)
  G1T38-related TEAE: Thombocytopenia: 0 n (%)
  G1T38-related TEAE: Vomiting: 0 n (%)
  G1T38-related TEAE: White blood cell count decreased: 0 n (%)
  Number (%) of patients with any G1T38-related TEAEs: 0 n (%)
[5]; Overall
  G1T38-related TEAE: Alopecia: 1 (5.6) n (%)
  G1T38-related TEAE: Anaemia: 6 (33.3) n (%)
  G1T38-related TEAE: Blood bilirubin increased: 1 (5.6) n (%)
  G1T38-related TEAE: Blood creatinine increased: 2 (11.1) n (%)
  G1T38-related TEAE: Blood lactate dehydrogenase increased: 1 (5.6) n (%)
  G1T38-related TEAE: Blood urea increased: 1 (5.6) n (%)
  G1T38-related TEAE: Diarrhoea: 5 (27.8) n (%)
  G1T38-related TEAE: Dry eye: 1 (5.6) n (%)
  G1T38-related TEAE: Dry mouth: 1 (5.6) n (%)
  G1T38-related TEAE: Haematuria: 3 (16.7) n (%)
  G1T38-related TEAE: Lacrimation increased: 1 (5.6) n (%)
  G1T38-related TEAE: Leukopenia: 1 (5.6) n (%)
  G1T38-related TEAE: Monocyte count decreased: 1 (5.6) n (%)
  G1T38-related TEAE: Nausea: 5 (27.8) n (%)
  G1T38-related TEAE: Neutropenia: 5 (27.8) n (%)
  G1T38-related TEAE: Neutrophil count deceased: 9 (50.0) n (%)
  G1T38-related TEAE: Platelet count decreased: 2 (11.1) n (%)
  G1T38-related TEAE: Stomatitis: 1 (5.6) n (%)
  G1T38-related TEAE: Thombocytopenia: 1 (5.6) n (%)
  G1T38-related TEAE: Vomiting: 3 (16.7) n (%)
  G1T38-related TEAE: White blood cell count decreased: 7 (38.9) n (%)
  Number (%) of patients with any G1T38-related TEAEs: 15 (83.3) n (%)
[5]; nonclinical and clinical data to date (see Example 6)
  more severe EGFR-TKI-related AEs: none of the more severe EGFR-TKI-related AEs have been observed
